Data from US9789159B2, “Diagnosis and treatment of prostate cancer” (The Research Foundation for The State University of New York, priority 2011, dated 2017).

Legend:
LNCaP cell line = conditions: VEGF 10 ng/mL or 10 nM DHT for 3, 6, 12 and 24 hr, Western blot densitometry, P<0.05 vs control
Experimental: In this example, to determine the responsiveness of Hexim-1 to androgen and VEGF in the epithelial prostate LNCap cell line, LNCap cells were treated with VEGF (10 ng/mL) or 10 nM dihydrotestosterone (DHT) for 3, 6, 12 and 24 hours, with the change in expression of Hexim-1 protein evaluated by Western blot.
FIG. 2A illustrates the epithelial prostate LNCaP cell line which was treated with VEGF (10 ng/ml) or 10 nM dihydrotestosterone (DHT) 10 nM for 3, 6, 12 and 24 hr. Protein extracts were obtained from each time point and the changes in the protein expression of Hexim-1, p-Akt and GAPDH evaluated by Western blot. The histogram indicates the ratio between p-AKT and GAPDH and the ratio of Hexim-1 to GAPDH as obtained by densitometry analysis of the Western blots. Data are expressed as means±SE of 4 independent experiments.

PC3 cells = conditions: androgen independent PC3 cells; 10 nM DHT for indicated times; Western blot
Experimental: In FIG. 2B, PC3 cells were treated with 10 nM DHT for indicated times, cells were collected and cellular extracts were prepared and analyzed for Hexim-1 and GAPDH. The histogram indicates a ratio between Hexim-1 and GAPDH. Data are expressed as means±SE of 3 independent experiments.

androgen receptor (AR) = androgen receptor (AR) (UniProt P19091)
Chain of UniProt P19091 (P19091 whole entry): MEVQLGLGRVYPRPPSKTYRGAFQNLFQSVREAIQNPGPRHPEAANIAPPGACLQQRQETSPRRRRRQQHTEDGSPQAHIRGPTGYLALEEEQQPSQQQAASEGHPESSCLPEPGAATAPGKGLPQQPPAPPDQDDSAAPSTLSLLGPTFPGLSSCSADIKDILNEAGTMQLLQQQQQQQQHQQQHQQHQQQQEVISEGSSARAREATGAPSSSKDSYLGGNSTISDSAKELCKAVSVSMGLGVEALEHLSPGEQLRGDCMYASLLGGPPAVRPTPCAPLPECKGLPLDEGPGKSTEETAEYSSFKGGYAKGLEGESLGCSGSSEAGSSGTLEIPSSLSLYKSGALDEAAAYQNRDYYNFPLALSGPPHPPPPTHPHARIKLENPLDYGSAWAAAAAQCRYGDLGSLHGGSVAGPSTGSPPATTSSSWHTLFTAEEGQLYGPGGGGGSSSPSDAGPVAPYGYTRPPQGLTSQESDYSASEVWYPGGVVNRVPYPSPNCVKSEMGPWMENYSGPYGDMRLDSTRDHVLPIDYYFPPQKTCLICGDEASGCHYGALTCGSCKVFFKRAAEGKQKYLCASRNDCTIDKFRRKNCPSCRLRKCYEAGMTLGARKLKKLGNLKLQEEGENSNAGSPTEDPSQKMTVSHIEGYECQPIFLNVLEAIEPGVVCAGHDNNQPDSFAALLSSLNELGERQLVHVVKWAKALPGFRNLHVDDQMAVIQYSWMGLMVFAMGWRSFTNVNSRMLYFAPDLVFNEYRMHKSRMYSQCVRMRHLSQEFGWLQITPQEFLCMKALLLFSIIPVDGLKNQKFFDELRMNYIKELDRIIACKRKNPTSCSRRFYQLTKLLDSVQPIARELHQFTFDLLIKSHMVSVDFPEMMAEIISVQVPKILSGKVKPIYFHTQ

Molecule | Hexim-1 protein levels (ratio of Hexim-1 to GAPDH) (LNCaP cell line) | p-Akt levels (ratio between p-AKT and GAPDH) (LNCaP cell line) | Hexim-1 levels (ratio between Hexim-1 and GAPDH) (PC3 cells) | serine-81 phosphorylation of the androgen receptor (Western blot after immunoprecipitation) (androgen receptor (AR))
C[C@]12CCC(=O)C[C@@H]1CC[C@@H]1[C@@H]2CC[C@]2(C)[C@@H](O)CC[C@@H]12 [DHT, dihydrotestosterone] | induced | correlated with the increased Hexim-1 expression | not changed | –
VEGF | induced | correlated with the increased Hexim-1 expression | – | –
cyclin dependent kinase 9 (Cdk9) | – | – | – | the serine phosphorylation of AR is significantly increased
